Source: PMC9036655 (RSC Advances, 2021)

What was measured:
M. tuberculosis H37Rv = test: Antimycobacterial activity against M. tuberculosis H37Rv; type: cell-based, Mycobacterium tuberculosis; details: for inhibition at 50 µg/mL / inhibition at 20 µg/mL: Mycobacterium tuberculosis, H37RV; for inhibition at 50 µg/mL: read-out: % inhibition 50 μg mL^−1, M. tuberculosis H37Rv, 50 μg mL^−1; for inhibition at 20 µg/mL: read-out: % inhibition 20 μg mL^−1, M. tuberculosis H37Rv; for inhibition at 20 µg/mL / % inhibition 20 μg mL^−1: 20 μg mL^−1
A549 cells = test: Cytotoxicity, MTT assay, A549 cells; type: cell-based, Human; details: for IC50: Homo sapiens, A549, 72 h, read-out: IC50 A549; for Selectivity index A549: IC50(A549)/MIC M. tb.
Vero cells = test: Cytotoxicity, MTT assay, Vero cells; type: cell-based, African green monkey; details: IC50(Vero)/MIC M. tb.

Q: “4-Methyl-3-(((1-(4-(trifluoromethoxy)benzoyl)piperidin-4-yl)amino)methyl)-5,6,7,8-tetrahydroquinolin-2(1H)-one [6d10]” was tested. Which MIC (M. tuberculosis H37Rv; M. tuberculosis H37Rv, MIC90, average of three measurements) did it give?
A: Its MIC is over 50 µg/mL.

Q: For Cc1[nH]c(=O)c(CNC(=O)c2ccc([N+](=O)[O-])s2)c2c1CCC2 [6a1, N-((1-Methyl-3-oxo-3,5,6,7-tetrahydro-2H-cyclopenta[c]pyridin-4-yl)methyl)-5-nitrothiophene-2-carboxamide], which inhibition at 50 µg/mL (M. tuberculosis H37Rv) is on record?
A: Its inhibition at 50 µg/mL is 53%.

Q: Cc1[nH]c(=O)c(CNC(=O)c2ccc(F)nc2)c2c1CCC2 [6a2, 6-Fluoro-N-((1-methyl-3-oxo-3,5,6,7-tetrahydro-2H-cyclopenta[c]pyridin-4-yl)methyl)nicotinamide] was tested. Which inhibition at 50 µg/mL (M. tuberculosis H37Rv) did it give?
A: The inhibition at 50 µg/mL was 14%.

Q: COc1cc(OC)cc(-c2ccc(C(=O)NCc3c4c(c(C)[nH]c3=O)CCCC4)cc2)c1 [6b6, 3′,5′-Dimethoxy-N-((1-methyl-3-oxo-2,3,5,6,7,8-hexahydroisoquinolin-4-yl)methyl)-[1,1′-biphenyl]-4-carboxamide] was tested. Which IC50 (A549 cells) did it give?
A: The IC50 was over 100 µg/mL.

Q: And the “Selectivity index A549” value (A549 cells)?
A: The value was over 33.

Q: And the “Selectivity index Vero” value (Vero cells)?
A: The value was over 16.

Q: With Cc1[nH]c(=O)c(CNC(=O)c2ccc(Cl)nc2)c2c1CCCC2 [6b24, 6-Chloro-N-((1-methyl-3-oxo-2,3,5,6,7,8-hexahydroisoquinolin-4-yl)methyl)nicotinamide] as the molecule, how does the inhibition at 20 µg/mL (M. tuberculosis H37Rv) read?
A: The inhibition at 20 µg/mL was 98.3%.

Q: Which inhibition at 20 µg/mL (M. tuberculosis H37Rv) does the source give for Cc1[nH]c(=O)c(CNC(=O)c2ccc(Br)nc2)c2c1CCCC2 [6b25, 6-Bromo-N-((1-methyl-3-oxo-2,3,5,6,7,8-hexahydroisoquinolin-4-yl)methyl)nicotinamide] here?
A: The inhibition at 20 µg/mL was 98.9%.

Q: Cc1[nH]c(=O)c(CNC(=O)c2ccc(F)nc2)c2c1CCCC2 [6b26, 6-Fluoro-N-((1-methyl-3-oxo-2,3,5,6,7,8-hexahydroisoquinolin-4-yl)methyl)nicotinamide] was tested. Which inhibition at 20 µg/mL (M. tuberculosis H37Rv) did it give?
A: Its inhibition at 20 µg/mL is 94.1%.

Q: What about the IC50 (A549 cells) of the same molecule?
A: Its IC50 is over 100 µg/mL.

Q: And the “Selectivity index A549” value (A549 cells)?
A: The value was over 63.

Q: And the “Selectivity index Vero” value (Vero cells)?
A: The value was over 31.

Q: For Cc1ccc(C(=O)NCc2c3c(c(C)[nH]c2=O)CCCC3)cn1 [6b27, 6-Methyl-N-((1-methyl-3-oxo-2,3,5,6,7,8-hexahydroisoquinolin-4-yl)methyl)nicotinamide], which inhibition at 20 µg/mL (M. tuberculosis H37Rv) is on record?
A: The inhibition at 20 µg/mL was 98.6%.

Q: With Cc1[nH]c(=O)c(CNC(=O)c2ccc([N+](=O)[O-])nc2)c2c1CCCC2 [6b28, N-((1-Methyl-3-oxo-2,3,5,6,7,8-hexahydroisoquinolin-4-yl)methyl)-6-nitronicotinamide] as the molecule, how does the inhibition at 20 µg/mL (M. tuberculosis H37Rv) read?
A: Its inhibition at 20 µg/mL is 98.9%.

Q: With Cc1[nH]c(=O)c(CNC(=O)c2ccc([N+](=O)[O-])o2)c2c1CCCC2 [6b29, N-((1-Methyl-3-oxo-2,3,5,6,7,8-hexahydroisoquinolin-4-yl)methyl)-5-nitrofuran-2-carboxamide] as the molecule, how does the inhibition at 20 µg/mL (M. tuberculosis H37Rv) read?
A: The inhibition at 20 µg/mL was 100%.

Q: And the IC50 (A549 cells)?
A: Its IC50 is over 100 µg/mL.

Q: What about the “Selectivity index A549” value (A549 cells) of the same molecule?
A: Its value is over 35.

Q: And the “Selectivity index Vero” value (Vero cells)?
A: Its value is over 17.

Q: With Cc1[nH]c(=O)c(CNC(=O)c2cc([N+](=O)[O-])co2)c2c1CCCC2 [6b30, N-((1-Methyl-3-oxo-2,3,5,6,7,8-hexahydroisoquinolin-4-yl)methyl)-4-nitrofuran-2-carboxamide] as the molecule, how does the inhibition at 20 µg/mL (M. tuberculosis H37Rv) read?
A: The inhibition at 20 µg/mL was 78.2%.

Q: How did the inhibition at 20 µg/mL (M. tuberculosis H37Rv) turn out when Cc1[nH]c(=O)c(CNC(=O)c2ccc(Br)o2)c2c1CCCC2 [6b31, 5-Bromo-N-((1-methyl-3-oxo-2,3,5,6,7,8-hexahydroisoquinolin-4-yl)methyl)furan-2-carboxamide] was run?
A: Its inhibition at 20 µg/mL is 97.7%.

Q: For Cc1[nH]c(=O)c(CNC(=O)c2ccc([N+](=O)[O-])s2)c2c1CCCC2 [6b32, N-((1-Methyl-3-oxo-2,3,5,6,7,8-hexahydroisoquinolin-4-yl)methyl)-5-nitrothiophene-2-carboxamide], which inhibition at 20 µg/mL (M. tuberculosis H37Rv) is on record?
A: Its inhibition at 20 µg/mL is 96.4%.

Q: Which results are given for Cc1[nH]c(=O)c(CNC(=O)c2ccc(C(F)(F)F)o2)c2c1CCCC2 [6b33, N-((1-Methyl-3-oxo-2,3,5,6,7,8-hexahydroisoquinolin-4-yl)methyl)-5-(trifluoromethyl)furan-2-carboxamide]?
A: inhibition at 20 µg/mL (M. tuberculosis H37Rv): 98.3%; IC50 (A549 cells): > 100 µg/mL; Selectivity index A549 (A549 cells): >50; Selectivity index Vero (Vero cells): >25

Q: Cc1[nH]c(=O)c(CNC(=O)c2cn[nH]c2)c2c1CCCC2 [6b35, N-((1-Methyl-3-oxo-2,3,5,6,7,8-hexahydroisoquinolin-4-yl)methyl)-1H-pyrazole-4-carboxamide] was tested. Which inhibition at 20 µg/mL (M. tuberculosis H37Rv) did it give?
A: The inhibition at 20 µg/mL was 94.6%.

Q: Which inhibition at 20 µg/mL (M. tuberculosis H37Rv) does the source give for Cc1[nH]c(=O)c(CNC(=O)c2ccno2)c2c1CCCC2 [6b36, N-((1-Methyl-3-oxo-2,3,5,6,7,8-hexahydroisoquinolin-4-yl)methyl)isoxazole-5-carboxamide] here?
A: Its inhibition at 20 µg/mL is 25.1%.

Q: With Cc1[nH]c(=O)c(CNC(=O)c2ccc(Br)nc2)c2c1CCCCC2 [6c1, 6-Bromo-N-((1-methyl-3-oxo-3,5,6,7,8,9-hexahydro-2H-cyclohepta[c]pyridin-4-yl)methyl)nicotinamide] as the molecule, how does the inhibition at 50 µg/mL (M. tuberculosis H37Rv) read?
A: Its inhibition at 50 µg/mL is 33%.

Q: How did the inhibition at 50 µg/mL (M. tuberculosis H37Rv) turn out when Cc1c2c([nH]c(=O)c1CNC(=O)c1ccc([N+](=O)[O-])s1)CCCC2 [6d5, N-((4-Methyl-2-oxo-1,2,5,6,7,8-hexahydroquinolin-3-yl)methyl)-5-nitrothiophene-2-carboxamide] was run?
A: The inhibition at 50 µg/mL was 100%.

Q: Which inhibition at 50 µg/mL (M. tuberculosis H37Rv) does the source give for COc1cc(OC)cc(C(=O)NCc2c(C)c3c([nH]c2=O)CCCC3)c1 [6d6, 3,5-Dimethoxy-N-((4-methyl-2-oxo-1,2,5,6,7,8-hexahydroquinolin-3-yl)methyl)benzamide] here?
A: Its inhibition at 50 µg/mL is 100%.

Q: With Cc1c2c([nH]c(=O)c1CNC(=O)c1ccc(C(F)(F)F)nc1Cl)CCCC2 [6d7, 2-Chloro-N-((4-methyl-2-oxo-1,2,5,6,7,8-hexahydroquinolin-3-yl)methyl)-6-(trifluoromethyl)nicotinamide] as the molecule, how does the inhibition at 50 µg/mL (M. tuberculosis H37Rv) read?
A: Its inhibition at 50 µg/mL is 99%.

Q: With Cc1c2c([nH]c(=O)c1CNC(=O)c1ccc(-c3ccc(C(F)(F)F)nc3)cc1)CCCC2 [6d9, N-((4-Methyl-2-oxo-1,2,5,6,7,8-hexahydroquinolin-3-yl)methyl)-4-(6-(trifluoromethyl)pyridin-3-yl)benzamide] as the molecule, how does the inhibition at 50 µg/mL (M. tuberculosis H37Rv) read?
A: The inhibition at 50 µg/mL was 18%.

Q: COc1cc(OC)cc(-c2ccc(C(=O)NCc3c(C)cc(C4CC4)[nH]c3=O)cc2)c1 [7a2, N-((6-Cyclopropyl-4-methyl-2-oxo-1,2-dihydropyridin-3-yl)methyl)-3′,5′-dimethoxy-[1,1′-biphenyl]-4-carboxamide] was tested. Which inhibition at 20 µg/mL (M. tuberculosis H37Rv) did it give?
A: Its inhibition at 20 µg/mL is 21%.

Q: Which inhibition at 20 µg/mL (M. tuberculosis H37Rv) does the source give for COc1cc(OC)cc(-c2ccc(C(=O)NCc3c(C)cc(-c4ccccc4)[nH]c3=O)cc2)c1 [7b2, 3′,5′-Dimethoxy-N-((4-methyl-2-oxo-6-phenyl-1,2-dihydropyridin-3-yl)methyl)-[1,1′-biphenyl]-4-carboxamide] here?
A: The inhibition at 20 µg/mL was 33%.

Q: Which inhibition at 20 µg/mL (M. tuberculosis H37Rv) does the source give for Cc1cc(C)c(CNC(=O)c2ccc([N+](=O)[O-])o2)c(=O)[nH]1 [8a1, N-((4,6-Dimethyl-2-oxo-1,2-dihydropyridin-3-yl)methyl)-5-nitrofuran-2-carboxamide] here?
A: Its inhibition at 20 µg/mL is 75.3%.

Q: How did the inhibition at 20 µg/mL (M. tuberculosis H37Rv) turn out when CCc1cc(CC)c(CNC(=O)c2ccc([N+](=O)[O-])o2)c(=O)[nH]1 [8a3, N-((4,6-Diethyl-2-oxo-1,2-dihydropyridin-3-yl)methyl)-5-nitrofuran-2-carboxamide] was run?
A: Its inhibition at 20 µg/mL is 98.1%.

Q: With Cc1cc(C)c(CNC(=O)c2ccc(C(F)(F)F)cc2)c(=O)[nH]1 [8a4, N-((4,6-Dimethyl-2-oxo-1,2-dihydropyridin-3-yl)methyl)-4-(trifluoromethyl)benzamide] as the molecule, how does the inhibition at 20 µg/mL (M. tuberculosis H37Rv) read?
A: Its inhibition at 20 µg/mL is 87.6%.

Q: With CCc1cc(CC)c(CNC(=O)c2ccc(C(F)(F)F)nc2)c(=O)[nH]1 [8a5, N-((4,6-Diethyl-2-oxo-1,2-dihydropyridin-3-yl)methyl)-6-(trifluoromethyl)nicotinamide] as the molecule, how does the inhibition at 20 µg/mL (M. tuberculosis H37Rv) read?
A: Its inhibition at 20 µg/mL is 94.4%.

Q: Cc1c(CNC(=O)c2ccc(C(F)(F)F)nc2)c(=O)[nH]c2ccccc12 [9a1, N-((4-Methyl-2-oxo-1,2-dihydroquinolin-3-yl)methyl)-6-(trifluoromethyl)nicotinamide] was tested. Which inhibition at 50 µg/mL (M. tuberculosis H37Rv) did it give?
A: Its inhibition at 50 µg/mL is 2%.

Q: How did the inhibition at 50 µg/mL (M. tuberculosis H37Rv) turn out when COc1cc(OC)cc(-c2ccc(C(=O)NCc3c(C)c4ccccc4[nH]c3=O)cc2)c1 [9a2, 3′,5′-Dimethoxy-N-((4-methyl-2-oxo-1,2-dihydroquinolin-3-yl)methyl)-[1,1′-biphenyl]-4-carboxamide] was run?
A: The inhibition at 50 µg/mL was 15%.

Q: Which inhibition at 50 µg/mL (M. tuberculosis H37Rv) does the source give for Cc1c(CNC(=O)c2ccc(-c3ccc(C(F)(F)F)nc3)cc2)c(=O)[nH]c2ccccc12 [9a3, N-((4-Methyl-2-oxo-1,2-dihydroquinolin-3-yl)methyl)-4-(6-(trifluoromethyl)pyridin-3-yl)benzamide] here?
A: The inhibition at 50 µg/mL was 13%.

Q: How did the inhibition at 50 µg/mL (M. tuberculosis H37Rv) turn out when Cc1c(CNC(=O)c2cnc(C(F)(F)F)nc2)c(=O)[nH]c2ccccc12 [9a4, N-((4-Methyl-2-oxo-1,2-dihydroquinolin-3-yl)methyl)-2-(trifluoromethyl)pyrimidine-5-carboxamide] was run?
A: Its inhibition at 50 µg/mL is 3%.

Q: Which inhibition at 20 µg/mL (M. tuberculosis H37Rv) does the source give for Cc1[nH]c(=O)c(CNCc2ccc(C(F)(F)F)cc2)c2c1CCCC2 [10a1, 1-Methyl-4-(((4-(trifluoromethyl)benzyl)amino)methyl)-5,6,7,8-tetrahydroisoquinolin-3(2H)-one] here?
A: The inhibition at 20 µg/mL was 65.7%.

Q: Cc1[nH]c(=O)c(CNS(=O)(=O)c2ccc(C(F)(F)F)nc2)c2c1CCCC2 [10a2, N-((1-Methyl-3-oxo-2,3,5,6,7,8-hexahydroisoquinolin-4-yl)methyl)-6-(trifluoromethyl)pyridine-3-sulfonamide] was tested. Which inhibition at 20 µg/mL (M. tuberculosis H37Rv) did it give?
A: Its inhibition at 20 µg/mL is 92.7%.

Q: Cc1[nH]c(=O)c(C(=O)Nc2ccc(C(F)(F)F)cc2)c2c1CCCC2 [10a4, 1-Methyl-3-oxo-N-(4-(trifluoromethyl)phenyl)-2,3,5,6,7,8-hexahydroisoquinoline-4-carboxamide] was tested. Which inhibition at 20 µg/mL (M. tuberculosis H37Rv) did it give?
A: Its inhibition at 20 µg/mL is 36.8%.

Q: For Cc1[nH]c(=O)c(CNC(=O)Cc2ccc(C(F)(F)F)cc2)c2c1CCCC2 [10a5, N-((1-Methyl-3-oxo-2,3,5,6,7,8-hexahydroisoquinolin-4-yl)methyl)-2-(4-(trifluoromethyl)phenyl)acetamide], which inhibition at 20 µg/mL (M. tuberculosis H37Rv) is on record?
A: The inhibition at 20 µg/mL was 99.3%.

Q: What does the source list for NNC(=O)c1ccncc1 [Isoniazid, reference compound]?
A: % inhibition 20 μg mL^−1 (M. tuberculosis H37Rv; M. tuberculosis H37Rv): 99.4%; inhibition at 20 µg/mL (M. tuberculosis H37Rv): 98.9%; inhibition at 50 µg/mL (M. tuberculosis H37Rv): 98.9%

Q: Which “% inhibition 20 μg mL^−1” value (M. tuberculosis H37Rv; M. tuberculosis H37Rv) does the source give for “N-((6-Ethyl-4-methyl-2-oxo-1,2-dihydropyridin-3-yl)methyl)-5-nitrofuran-2-carboxamide [8a2]” here?
A: The value was 98.2%.
